Assay results: article PMC5097156, “Potent and selective chemical probe of hypoxic signalling downstream of HIF-α hydroxylation via VHL inhibition” (Nature Communications, 2016)

Tests used:
Assay in all cases: biochemical
Set-up in all cases: Dundee MRC-PPU Express kinase screen, remaining kinase activity
Conditions in all cases: read-out: Mean % of remaining kinase activity (±sd)
[1] = biological target: T1, JNK1 (Homo sapiens, UniProt P45983)
T1 construct: gene MAPK8

[2] = biological target: T2, EF2K (Homo sapiens, UniProt O00418)
T2 construct: gene EEF2K

[3] = biological target: T3, RSK1 (Homo sapiens, UniProt Q15418)
T3 construct: gene RPS6KA1

[4] = biological target: GSK3b (Homo sapiens, UniProt P49841)
[5] = biological target: T4, AMPK (hum) (Homo sapiens, UniProt Q13131)
T4 construct: gene PRKAA1

[6] = biological target: T5, CK1δ (Homo sapiens, UniProt P48730)
T5 construct: gene CSNK1D

[7] = biological target: CAMK1 (Homo sapiens, UniProt Q14012)
[8] = biological target: T6, SmMLCK (Homo sapiens, UniProt Q15746)
T6 construct: gene MYLK; smooth muscle

[9] = biological target: HIPK2 (Homo sapiens, UniProt Q9H2X6)
[10] = biological target: T7, IGF-1R (Homo sapiens, UniProt P08069)
T7 construct: gene IGF1R

[11] = biological target: IRAK4 (Homo sapiens, UniProt Q9NWZ3)
[12] = biological target: BTK (Homo sapiens, UniProt Q06187)
[13] = biological target: T8, PRK2 (Homo sapiens, UniProt Q16513)
T8 construct: gene PKN2

[14] = biological target: T9, TAK1 (Homo sapiens, UniProt O43318)
T9 construct: gene MAP3K7

[15] = biological target: DYRK1A (Homo sapiens, UniProt Q13627)
[16] = biological target: Lck (Homo sapiens, UniProt P06239)
[17] = biological target: T10, EPH-A2 (Homo sapiens, UniProt P29317)
T10 construct: gene EPHA2

[18] = biological target: TBK1 (Homo sapiens, UniProt Q9UHD2)
[19] = biological target: TTK (Homo sapiens, UniProt P33981)
[20] = biological target: JAK3 (Homo sapiens, UniProt P52333)
[21] = biological target: T11, ROCK 2 (Homo sapiens, UniProt O75116)
T11 construct: gene ROCK2

[22] = biological target: T12, S6K1 (Homo sapiens, UniProt P23443)
T12 construct: gene RPS6KB1

[23] = biological target: Src (Homo sapiens, UniProt P12931)
[24] = biological target: SRPK1 (Homo sapiens, UniProt Q96SB4)
[25] = biological target: SGK1 (Homo sapiens, UniProt O00141)
[26] = biological target: PAK4 (Homo sapiens, UniProt O96013)
[27] = biological target: T13, Aurora B (Homo sapiens, UniProt Q96GD4)
T13 construct: gene AURKB

[28] = biological target: NEK6 (Homo sapiens, UniProt Q9HC98)
[29] = biological target: T14, PKA (Homo sapiens, UniProt P17612)
T14 construct: gene PRKACA

T4 sequence (Q13131 whole entry): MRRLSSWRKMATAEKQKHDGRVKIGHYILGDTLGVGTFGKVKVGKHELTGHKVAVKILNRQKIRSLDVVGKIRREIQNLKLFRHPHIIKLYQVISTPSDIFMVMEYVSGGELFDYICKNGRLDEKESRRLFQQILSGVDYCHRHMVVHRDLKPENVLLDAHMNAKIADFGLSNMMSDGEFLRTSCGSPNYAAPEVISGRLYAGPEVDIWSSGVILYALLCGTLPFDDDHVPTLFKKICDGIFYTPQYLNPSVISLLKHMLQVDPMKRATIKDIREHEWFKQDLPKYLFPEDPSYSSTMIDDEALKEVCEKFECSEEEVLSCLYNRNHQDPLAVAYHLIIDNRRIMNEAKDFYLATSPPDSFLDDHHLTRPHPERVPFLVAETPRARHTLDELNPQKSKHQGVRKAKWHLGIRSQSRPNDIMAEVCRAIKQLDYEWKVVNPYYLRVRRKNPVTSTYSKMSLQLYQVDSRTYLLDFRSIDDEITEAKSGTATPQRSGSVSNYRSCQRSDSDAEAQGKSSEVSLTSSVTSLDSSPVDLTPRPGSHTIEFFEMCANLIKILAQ
Sequence of BTK (Q06187 whole entry): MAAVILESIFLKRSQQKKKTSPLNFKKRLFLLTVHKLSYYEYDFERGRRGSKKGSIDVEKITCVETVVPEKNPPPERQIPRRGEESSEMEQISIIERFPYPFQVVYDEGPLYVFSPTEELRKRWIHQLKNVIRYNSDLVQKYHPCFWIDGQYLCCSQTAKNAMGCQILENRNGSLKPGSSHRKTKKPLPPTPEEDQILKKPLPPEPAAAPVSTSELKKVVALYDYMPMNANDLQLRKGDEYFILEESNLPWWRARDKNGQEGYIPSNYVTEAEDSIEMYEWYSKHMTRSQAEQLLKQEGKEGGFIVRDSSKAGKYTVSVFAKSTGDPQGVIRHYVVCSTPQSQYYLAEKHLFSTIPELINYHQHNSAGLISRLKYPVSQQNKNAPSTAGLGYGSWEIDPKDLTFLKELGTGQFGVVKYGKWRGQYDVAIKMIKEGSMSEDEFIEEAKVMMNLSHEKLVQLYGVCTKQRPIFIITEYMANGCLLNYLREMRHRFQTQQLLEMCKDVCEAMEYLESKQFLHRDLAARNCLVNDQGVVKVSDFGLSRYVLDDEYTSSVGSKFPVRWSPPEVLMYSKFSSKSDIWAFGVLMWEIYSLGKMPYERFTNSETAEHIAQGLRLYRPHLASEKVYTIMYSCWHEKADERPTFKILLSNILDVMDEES
Sequence of TTK (P33981 whole entry): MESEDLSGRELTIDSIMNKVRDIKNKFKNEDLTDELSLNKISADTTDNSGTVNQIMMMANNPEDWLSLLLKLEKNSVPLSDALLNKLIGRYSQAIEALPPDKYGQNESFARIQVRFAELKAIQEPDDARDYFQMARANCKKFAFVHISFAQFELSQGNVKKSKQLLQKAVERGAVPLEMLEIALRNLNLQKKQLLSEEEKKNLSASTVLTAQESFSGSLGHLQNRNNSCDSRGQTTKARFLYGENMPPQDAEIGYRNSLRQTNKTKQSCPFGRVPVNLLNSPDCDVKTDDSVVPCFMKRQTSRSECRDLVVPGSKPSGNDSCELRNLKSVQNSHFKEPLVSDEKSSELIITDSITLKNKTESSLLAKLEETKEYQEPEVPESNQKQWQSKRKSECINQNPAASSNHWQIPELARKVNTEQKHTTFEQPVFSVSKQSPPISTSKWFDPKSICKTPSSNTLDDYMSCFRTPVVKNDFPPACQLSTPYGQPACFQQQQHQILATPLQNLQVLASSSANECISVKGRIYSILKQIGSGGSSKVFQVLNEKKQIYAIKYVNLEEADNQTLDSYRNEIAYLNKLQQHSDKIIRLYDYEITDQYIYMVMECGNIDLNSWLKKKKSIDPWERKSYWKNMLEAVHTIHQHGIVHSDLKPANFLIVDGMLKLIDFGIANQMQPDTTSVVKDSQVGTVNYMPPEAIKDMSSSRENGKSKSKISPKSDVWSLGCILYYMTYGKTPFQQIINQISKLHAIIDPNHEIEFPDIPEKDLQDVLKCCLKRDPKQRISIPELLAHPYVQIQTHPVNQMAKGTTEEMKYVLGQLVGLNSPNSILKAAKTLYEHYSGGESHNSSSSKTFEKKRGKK
Sequence of JAK3 (P52333 whole entry): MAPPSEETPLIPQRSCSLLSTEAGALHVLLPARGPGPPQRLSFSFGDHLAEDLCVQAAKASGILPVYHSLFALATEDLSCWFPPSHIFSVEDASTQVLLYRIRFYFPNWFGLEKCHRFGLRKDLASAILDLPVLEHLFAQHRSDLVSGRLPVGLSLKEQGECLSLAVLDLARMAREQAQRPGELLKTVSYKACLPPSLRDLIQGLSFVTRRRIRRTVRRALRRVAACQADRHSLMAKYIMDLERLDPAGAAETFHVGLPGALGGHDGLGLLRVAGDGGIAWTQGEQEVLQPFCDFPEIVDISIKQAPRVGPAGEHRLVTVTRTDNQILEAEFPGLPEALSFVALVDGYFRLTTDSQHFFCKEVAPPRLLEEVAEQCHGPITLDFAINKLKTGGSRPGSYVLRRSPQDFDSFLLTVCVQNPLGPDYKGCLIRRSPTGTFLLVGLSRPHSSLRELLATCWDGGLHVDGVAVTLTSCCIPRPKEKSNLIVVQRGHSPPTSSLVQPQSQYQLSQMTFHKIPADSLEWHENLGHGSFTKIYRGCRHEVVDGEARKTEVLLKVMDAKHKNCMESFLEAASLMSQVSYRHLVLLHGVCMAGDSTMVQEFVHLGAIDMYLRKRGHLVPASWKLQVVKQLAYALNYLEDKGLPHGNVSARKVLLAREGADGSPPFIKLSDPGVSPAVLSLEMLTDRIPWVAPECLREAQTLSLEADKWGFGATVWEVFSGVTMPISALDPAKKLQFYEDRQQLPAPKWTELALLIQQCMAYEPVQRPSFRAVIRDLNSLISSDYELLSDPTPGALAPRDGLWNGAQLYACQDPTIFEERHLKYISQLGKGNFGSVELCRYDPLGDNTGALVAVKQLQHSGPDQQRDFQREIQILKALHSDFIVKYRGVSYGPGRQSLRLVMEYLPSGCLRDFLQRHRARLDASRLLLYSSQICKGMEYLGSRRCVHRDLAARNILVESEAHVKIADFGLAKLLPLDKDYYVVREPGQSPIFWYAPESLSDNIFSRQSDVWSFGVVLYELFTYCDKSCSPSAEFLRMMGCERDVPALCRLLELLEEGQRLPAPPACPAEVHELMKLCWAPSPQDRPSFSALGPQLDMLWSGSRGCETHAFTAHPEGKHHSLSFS
T11 sequence (O75116 whole entry): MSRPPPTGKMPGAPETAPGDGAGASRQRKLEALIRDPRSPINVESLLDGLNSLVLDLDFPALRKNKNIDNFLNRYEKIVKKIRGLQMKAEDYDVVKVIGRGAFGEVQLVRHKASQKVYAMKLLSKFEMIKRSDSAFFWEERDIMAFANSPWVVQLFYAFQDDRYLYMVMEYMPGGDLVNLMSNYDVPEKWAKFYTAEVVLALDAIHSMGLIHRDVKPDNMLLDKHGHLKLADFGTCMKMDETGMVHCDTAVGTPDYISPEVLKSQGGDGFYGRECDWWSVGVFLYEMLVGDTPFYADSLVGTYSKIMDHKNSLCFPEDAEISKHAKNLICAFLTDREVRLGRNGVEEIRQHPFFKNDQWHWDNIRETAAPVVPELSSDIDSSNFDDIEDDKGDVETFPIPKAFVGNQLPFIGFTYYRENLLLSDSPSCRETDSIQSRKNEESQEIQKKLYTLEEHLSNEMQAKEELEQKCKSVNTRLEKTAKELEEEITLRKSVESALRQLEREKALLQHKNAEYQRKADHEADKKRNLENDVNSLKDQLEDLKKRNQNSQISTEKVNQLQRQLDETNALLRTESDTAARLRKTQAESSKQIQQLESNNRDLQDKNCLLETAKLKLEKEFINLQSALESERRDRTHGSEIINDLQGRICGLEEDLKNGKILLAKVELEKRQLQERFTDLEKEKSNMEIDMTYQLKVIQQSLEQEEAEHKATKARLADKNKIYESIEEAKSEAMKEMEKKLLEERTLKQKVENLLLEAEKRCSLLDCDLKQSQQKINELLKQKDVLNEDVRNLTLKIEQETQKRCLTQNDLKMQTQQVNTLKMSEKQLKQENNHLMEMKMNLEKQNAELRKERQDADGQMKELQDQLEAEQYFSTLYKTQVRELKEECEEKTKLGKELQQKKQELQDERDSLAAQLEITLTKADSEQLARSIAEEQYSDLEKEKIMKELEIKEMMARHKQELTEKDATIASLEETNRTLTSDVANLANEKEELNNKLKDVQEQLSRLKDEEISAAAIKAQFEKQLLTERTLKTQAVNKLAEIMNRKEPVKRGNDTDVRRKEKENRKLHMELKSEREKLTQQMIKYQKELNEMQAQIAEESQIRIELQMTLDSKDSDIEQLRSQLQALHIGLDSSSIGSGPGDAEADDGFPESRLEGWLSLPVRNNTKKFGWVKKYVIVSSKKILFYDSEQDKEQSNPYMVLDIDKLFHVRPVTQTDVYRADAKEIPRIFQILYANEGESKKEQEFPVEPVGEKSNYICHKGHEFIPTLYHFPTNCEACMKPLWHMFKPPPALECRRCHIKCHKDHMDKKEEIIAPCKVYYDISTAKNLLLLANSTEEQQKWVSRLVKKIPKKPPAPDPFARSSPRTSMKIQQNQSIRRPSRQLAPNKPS
T1 sequence (P45983 whole entry): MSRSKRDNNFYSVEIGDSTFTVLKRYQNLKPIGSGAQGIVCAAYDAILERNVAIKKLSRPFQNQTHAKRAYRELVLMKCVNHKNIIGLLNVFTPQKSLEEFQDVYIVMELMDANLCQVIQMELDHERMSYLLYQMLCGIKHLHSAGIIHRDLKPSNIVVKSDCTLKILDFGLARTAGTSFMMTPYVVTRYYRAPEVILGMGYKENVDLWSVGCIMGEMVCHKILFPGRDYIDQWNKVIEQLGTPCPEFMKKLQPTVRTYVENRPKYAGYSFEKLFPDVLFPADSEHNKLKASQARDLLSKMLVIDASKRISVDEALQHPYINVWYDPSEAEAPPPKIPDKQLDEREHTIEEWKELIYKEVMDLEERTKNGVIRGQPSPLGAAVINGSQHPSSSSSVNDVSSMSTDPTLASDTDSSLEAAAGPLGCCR

Cc1ncsc1-c1ccc(CNC(=O)[C@@H]2C[C@@H](O)CN2C(=O)[C@@H](NC(=O)C2(C#N)CC2)C(C)(C)C)cc1 [VH298]
remaining activity at 50 µM [1]: 119% | remaining activity at 50 µM [2]: 116% | remaining activity at 50 µM [3]: 94% | remaining activity at 50 µM [4]: 107% | remaining activity at 50 µM [5]: 101% | remaining activity at 50 µM [6]: 99% | remaining activity at 50 µM [7]: 81% | remaining activity at 50 µM [8]: 105% | remaining activity at 50 µM [9]: 100% | remaining activity at 50 µM [10]: 110% | remaining activity at 50 µM [11]: 112% | remaining activity at 50 µM [12]: 102% | remaining activity at 50 µM [13]: 110% | remaining activity at 50 µM [14]: 111% | remaining activity at 50 µM [15]: 76% | remaining activity at 50 µM [16]: 104% | remaining activity at 50 µM [17]: 107% | remaining activity at 50 µM [18]: 110% | remaining activity at 50 µM [19]: 97% | remaining activity at 50 µM [20]: 99% | remaining activity at 50 µM [21]: 75% | remaining activity at 50 µM [22]: 87% | remaining activity at 50 µM [23]: 112% | remaining activity at 50 µM [24]: 101% | remaining activity at 50 µM [25]: 83% | remaining activity at 50 µM [26]: 97% | remaining activity at 50 µM [27]: 78% | remaining activity at 50 µM [28]: 106% | remaining activity at 50 µM [29]: 68%
